Reference: publication doi:10.1101/2022.10.08.511406v1 (biorxiv, 2022)
pIC50: −log10 of the molar value.

Molecular target: T1, YTH domain of YTHDF1 (Homo sapiens, UniProt Q9BYJ9)
T1 sequence (Q9BYJ9 361-559): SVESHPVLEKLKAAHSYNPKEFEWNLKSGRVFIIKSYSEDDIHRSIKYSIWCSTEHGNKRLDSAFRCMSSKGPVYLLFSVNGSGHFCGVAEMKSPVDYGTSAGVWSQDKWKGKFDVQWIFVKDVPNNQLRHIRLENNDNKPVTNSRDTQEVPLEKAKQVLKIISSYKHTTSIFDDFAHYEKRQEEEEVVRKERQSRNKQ
Assay: SPR competition
Type: binding

pIC50: 4.86
SMILES: CCCCCNC(=N)N/N=C/c1c[nH]c2ccc(OC)cc12 [tegaserod]
